According to US10638756B2, “Molecules having pesticidal utility, and intermediates, compositions, and processes, related thereto” (Dow AgroSciences LLC, priority 2017, dated 2020):

Tests used:
[1] = tested on: Beet Armyworm (Spodoptera exigua); test: Bioassay on Beet Armyworm (BAW), 128-well diet tray assay; assay type: in vivo; settings: for mortality at 50 µg/cm2: Spodoptera exigua, 168 h, 50 μg/cm^2 on artificial diet, second instar larvae, five to seven days, read-out: BAW % Control (or Mortality) rating
Experimental: (§1) Certain molecules disclosed in this document were tested against BAW and CL using procedures described in the following examples. In the reporting of the results, the “BAW & CL Rating Table” was used (See Table Section).
Bioassays on BAW were conducted using a 128-well diet tray assay. […] Trays were covered with a clear self-adhesive cover, vented to allow gas exchange, and held at 25° C., 14:10 light-dark for five to seven days. Percent mortality was recorded for the larvae in each well; activity in the eight wells was then averaged. The results are indicated in the table entitled “Table ABC: Biological Results” (See Table Section).

[2] = tested on: Cabbage Looper (Trichoplusia ni); test: Bioassay on Cabbage Looper (CL), 128-well diet tray assay; assay type: in vivo; settings: 168 h, 50 μg/cm^2 on artificial diet, second instar larvae, five to seven days, read-out: CL % Control (or Mortality) rating
Experimental: as §1
Bioassays on CL were conducted using a 128-well diet tray assay. One to five second instar CL larvae were placed in each well (3 mL) of the diet tray that had been previously filled with 1 mL of artificial diet to which 50 μg/cm^2 of the test molecule (dissolved in 50 μL of 90:10 acetone-water mixture) had been applied (to each of eight wells) and then allowed to dry. Trays were covered with a clear self-adhesive cover, vented to allow gas exchange, and held at 25° C., 14:10 light-dark for five to seven days. Percent mortality was recorded for the larvae in each well; activity in the eight wells was then averaged. The results are indicated in the table entitled “Table ABC: Biological Results” (See Table Section).

| Structure (SMILES) | mortality at 50 µg/cm2 [1] | mortality at 50 µg/cm2 [2] | further results |
| --- | --- | --- | --- |
| O=C(NNC1=NCCN1)c1ccc(/C(F)=C/C(c2cc(Cl)c(Cl)c(Cl)c2)C(F)(F)F)cc1C(F)(F)F (centres unmarked) [F116, (Z)—N′-(4,5-Dihydro-1H-imidazol-2-yl)-4-(1,4,4,4-tetrafluoro-3-(3,4,5-trichlorophenyl)but-1-en-1-yl)-2-(trifluoromethyl)benzohydrazide] | 50 to 100% | 50 to 100% |  |
| CN(NC(=O)c1ccc(/C(F)=C/C(c2ccc(F)c(C(F)(F)F)c2)C(F)(F)F)cc1C(F)(F)F)c1ncccn1 (centres unmarked) [F113, (Z)—N′-Methyl-N′-(pyrimidin-2-yl)-4-(1,4,4,4-tetrafluoro-3-(4-fluoro-3-(trifluoromethyl)phenyl)but-1-en-1-yl)-2-(trifluoromethyl)benzohydrazide] | 50 to 100% | 50 to 100% |  |
| O=C(NNc1ncccn1)c1ccc(/C(F)=C/C(c2cc(F)c(F)c(Cl)c2)C(F)(F)F)cc1C(F)(F)F (centres unmarked) [F174, (Z)-4-(3-(3-Chloro-4,5-difluorophenyl)-1,4,4,4-tetrafluorobut-1-en-1-yl)-N′-(pyrimidin-2-yl)-2-(trifluoromethyl)benzohydrazide] | 50 to 100% | 50 to 100% |  |
| CN(C)CCNNC(=O)c1ccc(/C(F)=C/C(c2cc(Cl)c(Cl)c(Cl)c2)C(F)(F)F)cc1C(F)(F)F (centres unmarked) [F143, (Z)—N′-(2-(Dimethylamino)ethyl)-4-(1,4,4,4-tetrafluoro-3-(3,4,5-trichlorophenyl)but-1-en-1-yl)-2-(trifluoromethyl)benzohydrazide] | 50 to 100% | 0 to 50% |  |
| O=C(NNc1ncccn1)c1ccc(/C(F)=C/C(c2ccc(C(F)(F)F)c(Cl)c2)C(F)(F)F)cc1C(F)(F)F (centres unmarked) [F167, (Z)-4-(3-(3-Chloro-4-(trifluoromethyl)phenyl)-1,4,4,4-tetrafluorobut-1-en-1-yl)-N′-(pyrimidin-2-yl)-2-(trifluoromethyl)benzohydrazide] | 50 to 100% | 50 to 100% |  |
| O=C(NNc1ncccn1)c1ccc(/C(F)=C/C(c2ccc(F)c(Cl)c2)C(F)(F)F)cc1C(F)(F)F (centres unmarked) [F182, (Z)-4-(3-(3-Chloro-4-fluorophenyl)-1,4,4,4-tetrafluorobut-1-en-1-yl)-N′-(pyrimidin-2-yl)-2-(trifluoromethyl)benzohydrazide] | 50 to 100% | 50 to 100% |  |
| O=C(NNc1nc(Cl)nc(Cl)n1)c1ccc(/C(F)=C/C(c2cc(Cl)c(Cl)c(Cl)c2)C(F)(F)F)cc1C(F)(F)F (centres unmarked) [F13, (Z)—N′-(4,6-Dichloro-1,3,5-triazin-2-yl)-4-(1,4,4,4-tetrafluoro-3-(3,4,5-trichlorophenyl)but-1-en-1-yl)-2-(trifluoromethyl)benzohydrazide] | 50 to 100% | 50 to 100% |  |
| O=C(NNCC1CC1)c1ccc(/C(F)=C/C(c2cc(Cl)c(Cl)c(Cl)c2)C(F)(F)F)cc1C(F)(F)F (centres unmarked) [F162, (Z)—N′-(Cyclopropylmethyl)-4-(1,4,4,4-tetrafluoro-3-(3,4,5-trichlorophenyl)but-1-en-1-yl)-2-(trifluoromethyl)benzohydrazide] | 50 to 100% | 50 to 100% |  |
| CC(C)CNNC(=O)c1ccc(/C(F)=C/C(c2cc(Cl)c(Cl)c(Cl)c2)C(F)(F)F)cc1C(F)(F)F (centres unmarked) [F157, (Z)—N′-Isobutyl-4-(1,4,4,4-tetrafluoro-3-(3,4,5-trichlorophenyl)but-1-en-1-yl)-2-(trifluoromethyl)benzohydrazide] | 50 to 100% | 50 to 100% |  |
| O=C(NNc1ncccn1)c1ccc(/C(F)=C/C(c2cc(Cl)c(Cl)c(C3CC3)c2)C(F)(F)F)cc1C(F)(F)F (centres unmarked) [F191, (Z)-4-(3-(3,4-Dichloro-5-cyclopropylphenyl)-1,4,4,4-tetrafluorobut-1-en-1-yl)-N′-(pyrimidin-2-yl)-2-(trifluoromethyl)benzohydrazide] | 50 to 100% | 50 to 100% |  |
| O=C(NNc1c(Cl)cccc1Cl)c1ccc(/C(F)=C/C(c2cc(Cl)c(Cl)c(Cl)c2)C(F)(F)F)cc1C(F)(F)F (centres unmarked) [F129, (Z)—N′-(2,6-dichlorophenyl)-4-(1,4,4,4-tetrafluoro-3-(3,4,5-trichlorophenyl)but-1-en-1-yl)-2-(trifluoromethyl)benzohydrazide] | 50 to 100% | 50 to 100% |  |
| O=C(NNc1cccc(Cl)n1)c1ccc(/C(F)=C/C(c2cc(Cl)c(Cl)c(Cl)c2)C(F)(F)F)cc1C(F)(F)F (centres unmarked) [F18, (Z)—N′-(6-Chloropyridin-2-yl)-4-(1,4,4,4-tetrafluoro-3-(3,4,5-trichlorophenyl)but-1-en-1-yl)-2-(trifluoromethyl)benzohydrazide] | 50 to 100% | 50 to 100% |  |
| CN(NC(=O)c1ccc(/C(F)=C/C(c2cc(Cl)cc(OC(F)(F)F)c2)C(F)(F)F)cc1C(F)(F)F)c1ccccn1 (centres unmarked) [F61, (Z)-4-(3-(3-Chloro-5-(trifluoromethoxy)phenyl)-1,4,4,4-tetrafluorobut-1-en-1-yl)-N′-methyl-N′-(pyridin-2-yl)-2-(trifluoromethyl)benzohydrazide] | 50 to 100% | 50 to 100% |  |
| O=C(NNc1ncccn1)c1ccc(/C(F)=C/[C@@H](c2cc(Cl)c(Cl)c(Cl)c2)C(F)(F)F)cc1C(F)(F)F (single isomer, unassigned) [F94] | 50 to 100% | 50 to 100% | BAW (Table CD-2) ([1]; 0.005 μg/cm^2): 0; BAW (Table CD-2) ([1]; 0.05 μg/cm^2): 0; BAW (Table CD-2) ([1]; 0.5 μg/cm^2): 7; BAW (Table CD-2) ([1]; 5.0 μg/cm^2): 100 |
| O=C(NNc1cccc(F)n1)c1ccc(/C(F)=C/C(c2cc(Cl)c(Cl)c(Cl)c2)C(F)(F)F)cc1C(F)(F)F (centres unmarked) [F34, (Z)—N′-(6-Fluoropyridin-2-yl)-4-(1,4,4,4-tetrafluoro-3-(3,4,5-trichlorophenyl)but-1-en-1-yl)-2-(trifluoromethyl)benzohydrazide] | 50 to 100% | 50 to 100% |  |
| CCc1cnc(NNC(=O)c2ccc(/C(F)=C/C(c3cc(Cl)c(Cl)c(Cl)c3)C(F)(F)F)cc2C(F)(F)F)nc1 (centres unmarked) [F84, (Z)—N′-(5-Ethylpyrimidin-2-yl)-4-(1,4,4,4-tetrafluoro-3-(3,4,5-trichlorophenyl)but-1-en-1-yl)-2-(trifluoromethyl)benzohydrazide] | 50 to 100% | 50 to 100% |  |
| C=Cc1cc(C(/C=C(\F)c2ccc(C(=O)NNc3ncccn3)c(C(F)(F)F)c2)C(F)(F)F)cc(Cl)c1Cl (centres unmarked) [F168, (Z)-4-(3-(3,4-dichloro-5-vinylphenyl)-1,4,4,4-tetrafluorobut-1-en-1-yl)-N′-(pyrimidin-2-yl)-2-(trifluoromethyl)benzohydrazide] | 50 to 100% | 50 to 100% |  |
| NN(CC1CC1)C(=O)c1ccc(/C(F)=C/C(c2cc(Cl)c(Cl)c(Cl)c2)C(F)(F)F)cc1C(F)(F)F (centres unmarked) [F98, (Z)—N-(Cyclopropylmethyl)-4-(1,4,4,4-tetrafluoro-3-(3,4,5-trichlorophenyl)but-1-en-1-yl)-2-(trifluoromethyl)benzohydrazide] | 50 to 100% | 50 to 100% |  |
| CN(NC(=O)c1ccc(/C(F)=C/C(c2cc(Cl)c(F)c(Cl)c2)C(F)(F)F)cc1C(F)(F)F)c1ncccn1 (centres unmarked) [F2, (Z)-4-(3-(3,5-Dichloro-4-fluorophenyl)-1,4,4,4-tetrafluorobut-1-en-1-yl)-N′-methyl-N′-(pyrimidin-2-yl)-2-(trifluoromethyl)benzohydrazide] | 50 to 100% | 50 to 100% |  |
| O=C(NNc1ncccn1)c1ccc(/C(F)=C/C(c2ccc(F)c(C(F)(F)F)c2)C(F)(F)F)cc1C(F)(F)F (centres unmarked) [F32, (Z)—N′-(Pyrimidin-2-yl)-4-(1,4,4,4-tetrafluoro-3-(4-fluoro-3-(trifluoromethyl)phenyl)but-1-en-1-yl)-2-(trifluoromethyl)benzohydrazide] | 50 to 100% | 50 to 100% |  |
| O=C(NNc1ncccn1)c1ccc(/C(F)=C/C(c2cc(F)c(Cl)c(F)c2)C(F)(F)F)cc1C(F)(F)F (centres unmarked) [F188, (Z)-4-(3-(4-Chloro-3,5-difluorophenyl)-1,4,4,4-tetrafluorobut-1-en-1-yl)-N′-(pyrimidin-2-yl)-2-(trifluoromethyl)benzohydrazide] | 50 to 100% | 50 to 100% |  |
| O=C(Nn1cccc1)c1ccc(/C(F)=C/C(c2cc(Cl)c(Cl)c(Cl)c2)C(F)(F)F)cc1C(F)(F)F (centres unmarked) [F51, (Z)—N-(1H-Pyrrol-1-yl)-4-(1,4,4,4-tetrafluoro-3-(3,4,5-trichlorophenyl)but-1-en-1-yl)-2-(trifluoromethyl)benzamide] | 50 to 100% | 50 to 100% |  |
| O=C(NNc1ncccn1)c1ccc(/C(F)=C/C(c2cc(Cl)c(Cl)c(C(F)F)c2)C(F)(F)F)cc1C(F)(F)F (centres unmarked) [F186, (Z)-4-(3-(3,4-Dichloro-5-(difluoromethyl)phenyl)-1,4,4,4-tetrafluorobut-1-en-1-yl)-N′-(pyrimidin-2-yl)-2-(trifluoromethyl)benzohydrazide] | 50 to 100% | 50 to 100% |  |
| O=C(NNc1ncccn1)c1ccc(/C(F)=C/C(c2cc(Cl)c(Cl)c(Cl)c2)C(F)(F)F)cc1 (centres unmarked) [1A, (Z)—N′-(Pyrimidin-2-yl)-4-(1,4,4,4-tetrafluoro-3-(3,4,5-trichlorophenyl)but-1-en-1-yl)benzohydrazide] |  |  | BAW (Table CD-1) ([1]; 0.05 μg/cm^2): 0; BAW (Table CD-1) ([1]; 5.0 μg/cm^2): 25; BAW (Table CD-1) ([1]; 50 μg/cm^2): 100 |
